This is an account of results in BindingDB's records for doi:10.1016/s0960-894x(02)00329-3 (Sankyo, 2002).

In the test the target is Neuraminidase (Influenza A virus (strain A/Puerto Rico/8/1934 H1N1), UniProt P03468). The test can be described thus: Inhibition of influenza A sialidase in vitro.
Neuraminidase, sequence (P03468 whole entry): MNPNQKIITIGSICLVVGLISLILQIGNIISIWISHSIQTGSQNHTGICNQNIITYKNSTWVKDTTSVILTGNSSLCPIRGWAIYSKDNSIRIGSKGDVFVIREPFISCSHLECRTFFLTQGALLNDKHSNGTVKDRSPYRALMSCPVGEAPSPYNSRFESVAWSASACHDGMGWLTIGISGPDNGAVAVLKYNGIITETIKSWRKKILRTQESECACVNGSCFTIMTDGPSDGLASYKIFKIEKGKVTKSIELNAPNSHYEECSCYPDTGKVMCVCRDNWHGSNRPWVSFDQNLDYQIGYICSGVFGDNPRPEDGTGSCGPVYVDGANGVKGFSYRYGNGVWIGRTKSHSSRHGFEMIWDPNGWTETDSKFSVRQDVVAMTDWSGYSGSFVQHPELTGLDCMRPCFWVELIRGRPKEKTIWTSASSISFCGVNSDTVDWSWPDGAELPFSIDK

The term IC50 denotes the midpoint of a concentration-inhibition curve. As for `[C]C(=O)[N][C][C]O[C@@H]([C@@H]1OC(C([O])=O)=[C][C@H](N=C([N])[N])[C@H]1[N]C([C])=O)[C@H]([O])[C][O]`, the half-maximal inhibitory concentration (IC50) was 18.4 nM. This lies in the double-digit nanomolar range.
The value for `[C][C][C][C][C]O[C@H]([C][C])[C@@H]1OC(C([O])=O)=[C][C@H](N=C([N])[N])[C@H]1[N]C([C])=O` was 18.8 nM.
